Experimental findings from US20140314780A1, “Compositions Using Antibodies Directed to GPNMB and Uses Thereof” (Celldex Therapeutics, Inc., priority 2008, published 2014) are described below.

Entries after “also recorded” stand apart in the source; their conditions may differ.

What all share (assay type): cell-based, human
One assay concerns GPNMB. Put plainly: Immunoblotting for GPNMB on whole-cell lysates of cancer cell lines after drug exposure. The settings on record: for increase of GPNMB expression in the screen: determined by immunoblotting and/or flow cytometry analysis; for GPNMB expressed after protein synthesis inhibition: 1 hour, absence of ammonium chloride (FIG. 6D). From the text:
Cancer cell lines were of human origin and were obtained from the American Type Culture Collection (Manassas, Va.) and from the National Cancer Institute (Bethesda, Md.) and cultured in RPMI-1640 supplemented with 10% FBS (growth media). Sources of reagents were as follows: RAFKi (553013), MEKi (U0126), MEKi (PD98059), MEKi (444939), ERKi (FR180204), p38 MAPKi (SB202190), p38 MAPKi (SB203580), aurora kinase inhibitor (189404), JNK inhibitor (420119), MMPi (GM6001) were from EMD Chemicals (San Diego, Calif.). ERKi (A6355), RAFKi: (GW5074), ammonium chloride (NH4Cl), chloroquine, monensin, cyclohexamide and emetine were from Sigma (Saint Louis, Mo.). HSP90i (geldanamycin) was from AG Scientific (San Diego, Calif.) and imatinib (Gleevec) was purchased from a pharmacy.
Cells were seeded in 6-well tissue culture dishes at a subconfluent density and allowed to attach overnight. For harvesting cell lysates, media was removed, cells were briefly washed with serum-free media and then 1× Tris-glycine SDS sample buffer (Invitrogen, Carlsbad, Calif.) supplemented with 10 mM dithiothreitol (Sigma) was added directly to the wells. Cell lysates were then collected and boiled for 10 minutes. For preparing conditioned media, drug treatments were performed in a minimum volume of growth media (1.5 mL/well). Following 48 hours of incubation, conditioned media was collected, briefly microfuged, mixed with an equal volume of 2× Tris-glycine SDS sample buffer (Invitrogen, Carlsbad, Calif.) supplemented with 20 mM dithiothreitol (Sigma) and boiled for 10 minutes. For cell lysates, samples were quantified and an equal quantity of protein/lane was resolved on 4-20% gradient polyacrylamide gels (Invitrogen) and then transferred to nitrocellulose filters (Invitrogen). The volume of conditioned media loaded/lane was adjusted based on the protein concentration determined in the respective cell lysates. Immunoblotting was performed using standard procedures and the following primary antibodies: MARTI (sc-20032), TYRP2 (sc-25544), TYRP1 (sc-25543), PMEL17 (sc-15010), MAGEA1 (sc-20033), MCSP (sc-20162), MTf (sc-26651), MCAM (sc-18942), pp-ERK (sc-7976) and ERK (sc-94) (preceding antibodies were purchased from Santa Cruz Biotechnologies, Santa Cruz, Calif.), GPNMB (AF2550; R & D Systems, Minneapolis Minn.), actin (A5060; Sigma). Following incubation with the appropriate horseradish peroxidase-conjugated secondary antibodies, enhanced chemiluminescence (GE Healthcare, Chalfont St. Giles, United Kingdom) was used for detection.
In general terms: In western blotting, separated proteins are transferred to a membrane and probed.

In assay [1] the test system is GPNMB surface expression on A375 melanoma cells. Put plainly: Flow cytometry of GPNMB surface expression, A375 cells. To be noted: for GPNMB surface expression, flow cytometry GeoMean: A375, CR011 (anti-GPNMB) primary antibody. Here is the method: (§1) Cells were seeded in 6-well tissue culture dishes at a subconfluent density and allowed to attach overnight. The following day, cells were treated as indicated in the figures/legends, harvested with versene (Invitrogen), washed with PBS and incubated with primary antibody (10 μg/mL) diluted in staining buffer (PBS pH 7.4, 4% FBS, 0.1% sodium azide) for 30 minutes on ice. […] After incubation with primary antibody, samples were washed with staining buffer and then incubated with secondary antibody (PE-conjugated anti-human antibody; 1:100) for 30 minutes on ice. After incubation, samples were washed with staining buffer and examined on a Becton Dickinson FACSCalibur flow cytometer (BD Immunocytometry Systems, San Jose, Calif.). Data analysis was performed with Becton Dickinson Cell Quest software and the geometric mean fluorescence intensity (GeoMean) was determined for each sample.
(§2) For the data shown in Table 37, flow cytometry was performed on intact, non-permeabilized cells using the indicated primary monoclonal antibodies. […] The results are reported as GeoMeans. […] For the data shown in the bottom left panel of Table 37, SKMEL2 (melanoma) cells were treated with MEKi (U0126; 10 uM), imatinib (20 uM), p38i (p38 MAPKi SB202190; 50 uM), NH4Cl (ammonium chloride; 20 mM) or CLQ (chloroquine; 20 uM) for 48 hours prior to analysis. For the data shown in the bottom right panel of Table 37, WM2664 (melanoma) cells were treated with MON (monensin) or MMPi (GM6001) for 48 hours prior to analysis.
(Flow cytometry measures light scatter and fluorescence of single cells or particles in a stream.)

For another assay, the system named is phospho-ERK (pp-ERK). Description: Immunoblotting for phospho-ERK (level of ERK activation). From the text: In the experiment presented in FIG. 2A, potential inhibition of the ERK pathway was investigated by immunoblotting for phospho-ERK (pp-ERK), which represents the active form of this signaling molecule.
Assay [2] has as its system GPNMB surface expression on SF539 glioblastoma cells. Description: Flow cytometry of GPNMB surface expression, SF539 cells. The settings on record: SF549, CR011 (anti-GPNMB) primary antibody. Here is the method:
as §1, §2

Assay [3] has as its system GPNMB surface expression on SKMEL2 melanoma cells. Description: Flow cytometry of GPNMB surface expression, SKMEL2 cells. The settings on record: for GPNMB surface expression, flow cytometry GeoMean: SKMEL2, CR011 (anti-GPNMB) primary antibody, MEKi (U0126) 10 uM, imatinib 20 uM, p38i (SB202190) 50 uM; for GPNMB surface-expression: SKMEL2 cells, 48 hours (Table 37, bottom left). The protocol:
as §1
For the data shown in Table 37, flow cytometry was performed on intact, non-permeabilized cells using the indicated primary monoclonal antibodies. […] The results are reported as GeoMeans. For the data shown in the top panel of Table 37, A375 (melanoma) or SF539 (glioblastoma) cells were treated with the indicated concentrations of MEKi (U0126), RAFKi (553013) or ERKi (FR180204) for 12, 24 or 48 hours prior to analysis. For the data shown in the bottom left panel of Table 37, SKMEL2 (melanoma) cells were treated with MEKi (U0126; 10 uM), imatinib (20 uM), p38i (p38 MAPKi SB202190; 50 uM), NH4Cl (ammonium chloride; 20 mM) or CLQ (chloroquine; 20 uM) for 48 hours prior to analysis. For the data shown in the bottom right panel of Table 37, WM2664 (melanoma) cells were treated with MON (monensin) or MMPi (GM6001) for 48 hours prior to analysis.

Where [4] appears, read: melanoma lines SKMEL2, A375, WM2664, MEWO, 48 hours (FIG. 6A).

Turning to `Cc1ccc2nc(NCCN)c3ncc(C)n3c2c1` [BMS345541], the “increase of GPNMB expression in the screen” value (shortened to “increase of GPNMB expression”) in the assay with GPNMB was “ineffective”.
Turning to `Nc1n[nH]c2nnc(-c3c(-c4ccccc4)nn4ccccc34)cc12` [FR180204, 5-(2-phenylpyrazolo[1,5-a]pyridin-3-yl)-1H-pyrazolo[3,4-c]pyridazin-3-amine], the “GPNMB surface expression, flow cytometry GeoMean” value in assay [1] (ERKi (FR180204) 3.1 uM, 12 h) is given as 13.0; in assay [1] (ERKi (FR180204) 3.1 uM, 24 h), 13.5; in assay [1] (ERKi (FR180204) 3.1 uM, 48 h) it was 13.1; in assay [1] (ERKi (FR180204) 50 um, 12 h), 13.0; in assay [1] (ERKi (FR180204) 50 um, 24 h), 14.9; in assay [1] (ERKi (FR180204) 50 um, 48 h), 50.3. The “GPNMB surface expression, flow cytometry GeoMean” value is listed as 32.6 in assay [2] (ERKi (FR180204) 3.1 uM, 12 h); 33.7 in assay [2] (ERKi (FR180204) 3.1 uM, 24 h); 32.6 in assay [2] (ERKi (FR180204) 3.1 uM, 48 h); 31.3 in assay [2] (ERKi (FR180204) 50 um, 12 h); 30.7 in assay [2] (ERKi (FR180204) 50 um, 24 h); 30.6 in assay [2] (ERKi (FR180204) 50 um, 48 h). Besides, in assay [1] (A375 melanoma, 12, 24 or 48 hours (Table 37, top)), the GPNMB surface expression result is given as “induced GPNMB surface expression”. Moreover, the “inhibition of the ERK pathway (phospho-ERK levels)” value in the assay on phospho-ERK (pp-ERK) (FIG. 3B bottom, A375, SKMEL2, SF539) is given as “relatively weak inhibition”. The “GPNMB induction (immunoblotting)” value with GPNMB (A375 cells, only following an exposure time of 48 hours (FIG. 3B, bottom)) is “strong induction”; in the assay on GPNMB (SKMEL2 or SF539 cells (FIG. 3B, bottom)), “Little or no GPNMB induction”.
Consider `O=c1cc(N2CCOCC2)oc2c(-c3ccccc3)cccc12` [LY94002], for which, in the assay on GPNMB, the “increase of GPNMB expression” value is reported as “ineffective”.
As for `Nc1ncn([C@@H]2O[C@H](CO)[C@@H](O)[C@H]2O)c(=O)n1` [Mab 5-AZA], the “increase of GPNMB expression” value in the assay with GPNMB was “ineffective”.
As for `Oc1ccc(-c2nc(-c3ccc(F)cc3)c(-c3ccncc3)[nH]2)cc1` [SB202190, 4-[4-(4-Fluorophenyl)-5-(4-pyridinyl)-1H-imidazol-2-yl]phenol], in assay [3], the “GPNMB surface expression, flow cytometry GeoMean” value was found to be 85.1.
Turning to `Cl.N` [ammonium chloride], in assay [3], the “GPNMB surface expression, flow cytometry GeoMean” value amounted to 93.8 and the GPNMB surface-expression entry is recorded as “increase GPNMB surface-expression”. Also, the “GPNMB induction compared with MTf and MCAM” value with GPNMB (NH4Cl 20 mM, 48 hours (FIG. 6E)) is “more highly induced”. Moreover, in the assay with GPNMB (ammonium chloride (50 mM) along with protein synthesis inhibitor, 1 hour (FIG. 6D)), the “GPNMB detection with protein synthesis inhibitor” value is on record as “readily detectable”. For the same molecule, the “GPNMB expression (immunoblotting)” value in the assay with GPNMB (setting [4]) is listed as “induced”.
As to `O=C(/C=C/c1cccc(S(=O)(=O)Nc2ccccc2)c1)NO` [belinostat], the “increase of GPNMB expression” value in the assay on GPNMB is given as “ineffective”.
The same measure, in the same setting: the same measure for `CC(C)C[C@H](NC(=O)[C@H](Cc1ccccc1)NC(=O)c1cnccn1)B(O)O` [bortezomib]: “ineffective”; for `O=NN(CCCl)C(=O)NCCCl` [carmustine]: “ineffective”.
Turning to `CCN(CC)CCCC(C)Nc1ccnc2cc(Cl)ccc12` (stereo not drawn) [chloroquine], in assay [3], the “GPNMB surface expression, flow cytometry GeoMean” value is recorded as 91.2 and the GPNMB surface-expression entry was “increase GPNMB surface-expression”. The “GPNMB expression (immunoblotting)” value in the assay on GPNMB (setting [4]) was “induced”.
`N.N.[Cl][Pt][Cl]` [cisplatin]: the “increase of GPNMB expression” value with GPNMB was “ineffective”.
For the molecule `C[C@@H]1C[C@@H]([C@H](O)CC2CC(=O)NC(=O)C2)C(=O)[C@@H](C)C1` [cyclohexamide], the “GPNMB expressed after protein synthesis inhibition” value in the assay with GPNMB is “little or no GPNMB”.
On the same count and under the same terms, the same measure for `CC[C@H]1CN2CCc3cc(OC)c(OC)cc3[C@@H]2C[C@@H]1C[C@H]1NCCc2cc(OC)c(OC)cc21` [emetine]: “little or no GPNMB”.
Take `Cc1ccc(NC(=O)c2ccc(CN3CCN(C)CC3)cc2)cc1Nc1nccc(-c2cccnc2)n1` [imatinib]: the “GPNMB surface expression, flow cytometry GeoMean” value in assay [3] is given as 103.7. Moreover, the GPNMB surface-expression result in assay [3] is given as “increase GPNMB surface-expression”. In addition, the phospho-ERK result with phospho-ERK (pp-ERK) (melanoma and glioblastoma cell lines, imatinib 20 μM, 48 hours (FIG. 6B)) is given as “without inhibiting phospho-ERK”. Further, the “GPNMB expression (immunoblotting)” value with GPNMB (setting [4]) is given as “induced”; in the assay on GPNMB (variety of melanoma and glioblastoma cell lines, 48 hours (FIG. 6B, 6C)), “strongly induced; also recorded: robust GPNMB expression”.
As for `CC(=O)O[C@H]1C(=O)[C@@]2(C)[C@H]([C@H](OC(=O)c3ccccc3)[C@]3(O)C[C@H](OC(=O)[C@H](O)[C@@H](NC(=O)c4ccccc4)c4ccccc4)C(C)=C1C3(C)C)[C@]1(OC(C)=O)CO[C@@H]1C[C@@H]2O` [paclitaxel], in the assay on GPNMB, the “increase of GPNMB expression” value is given as “ineffective”.
Still for that read-out and setting: the same measure for IFNα: “ineffective”; for “IFNγ: IFNγ, compound examined in the screen”: “ineffective”.
